Results as given in patent US4703036A, “Peptide-aldehydes, process for the preparation thereof and pharmaceutical compositions containing the same” (Richter Gedeon Vegyeszeti Gyar RT, priority 1984, dated 1987).
Non-standard residues stand in square brackets, D forms with d. Residues, ends and D or L forms follow the SMILES beside them. dNMeaIle = CC[C@H](C)[C@@H](NC)C(=O)O

Legend:
[1] = test system: male New Zealand rabbits; assay: In vivo anticoagulant effect: whole blood clotting time and plasma thrombin time; set-up: species or system rabbit; conditions: lowest dose required to attain therapeutic effect; for Lowest effective dose po: oral administration; for Lowest effective dose iv: intravenous infusion for 3 hours
Method: The peptides, dissolved in isotonic saline solution, were administered orally or intravenously to male New Zealand rabbits weighing 2 to 3 kg. At intravenous application infusions of 0.5 to 2.0 mg/kg/h were given at a rate of 6 ml/h for 3 hours. At oral administration 20 to 30 mg/kg doses of the peptides were given in volumes of 2 ml. After application blood samples were taken in 30 minute periods from the ear vein of the rabbits and the clotting time of whole blood was assayed in a Thromboelastograph [H. Harter: Zeitschrift fur klinische Medizin 153, 423 (1955)], simultaneously the plasma thrombin time was measured, too [R. T. S. Jim: J. Lab. Clin. Med. 50, 45 (1957)]. The lowest doses required to attain therapeutic effect (M. Verstraete and R. Verwilghen in Drug Treatment, 2nd ed., Ed.: G. S. Avery, Churchill Livingstone, Edinburgh-London, 1980, p. 919) were presented in Table 3, D-phenylalanyl-L-prolyl-L-arginine-aldehyde sulfate served as reference substance.

[2] = target: T1, US Standard Human Thrombin (Homo sapiens, UniProt P00734); assay: Change in the antithrombin activity of aqueous solutions of tripeptide-aldehyde sulfates on storage; type: physicochemical; conditions: aqueous solution 10 mg/ml; for loss of initial antithrombin activity during the observation period: pH 6.0, 40° C., 5 days; for Activity (%) Day 1 / Activity (%) Day 2 / Activity (%) Day 3: percentage of initial activity, pH = 6.0, stored at 40° C.
T1 construct: US Standard Human Thrombin; purchased NIH, Bethesda, Md., USA
Method: The transformations proceeding in the solutions were monitored by chromatography and by measuring antithrombin activity. Antithrombin activities were assayed in a system containing the following components: […] 0.1 ml US Standard Human Thrombin (NIH, Bethesda, Md., USA), 10 unit/ml solution. The clotting time of the peptide-free system is 15 s, measured in the "[…]-Gross-Coagulometer". The initial activity of the tripeptide-aldehyde sulfates was arbitrarily set up as the mole concentration inducing the fivefold prolongation of clotting time in the system compared to the control ([…] value).

[3] = target: T1, US Standard Human Thrombin; assay: Antithrombin activity: clotting time in the thrombin-fibrinogen system; type: biochemical; conditions: for Initial activity I80 (zero day): peptide concentration in the reaction mixture inducing a fivefold prolongation of clotting time compared to the control (15 s)
Method: Antithrombin activities were assayed in a system containing the following components:
(§1) 0.2 ml 0.5 percent bovine fibrinogen in a 0.9 percent solution of sodium chloride,
0.1 ml tris(hydroxymethyl)-amino-methane-hydrochloride-hydrochloric acid buffer (pH=7.2) containing the peptide solution, and
0.1 ml US Standard Human Thrombin (NIH, Bethesda, Md., USA), 10 unit/ml solution.
The clotting time of the peptide-free system is 15 s, measured in the "Schnither-Gross-Coagulometer". The initial activity of the tripeptide-aldehyde sulfates was arbitrarily set up as the mole concentration inducing the fivefold prolongation of clotting time in the system compared to the control (I80 value). The activity of the peptides in the solutions, assayed on the 1st, 3rd and 5th day, was expressed as a percentage of the initial activity (zero day).

[4] = Conversion to the tricyclic compound in aqueous solution, monitored by chromatography; type: physicochemical; conditions: for irreversible conversion to the tricyclic compound: aqueous solution 10 mg/ml, pH=6.0, 40° C., 5 days, thin-layer chromatography
Method: The structure of this compound [1,2,4,5,6,6a-hexahydro-1-benzyl-2-oxo-8-(4'-guanidino)-butyl-pyrrolo[1,2- a]imidazolo[2,1-c]pyrazine] was confirmed by mass spectrometry and NMR spectroscopy. […] 817], they are less suitable for anticoagulant therapy.
During stability testing aqueous solutions of D-phenylalanyl-L-prolyl-L-arginine-aldehyde sulfate as well as of the corresponding N-alkyl derivatives with a concentration of 10 mg/ml (pH=6.0) were stored at 40° C. for 5 days. The transformations proceeding in the solutions were monitored by chromatography and by measuring antithrombin activity.

[5] = target: T2, plasmin (Homo sapiens, UniProt P00747); assay: Effect on the plasmin-fibrin reaction: lysis time of fibrin clot; type: biochemical; set-up: key: **: No measurable lysis time due to clot of rather loose structure; conditions: peptide-free system 10 minutes
T2 construct: 0.1 U plasmin dissolved in buffer solution (KABI, Stockholm, Sweden); purchased KABI, Stockholm, Sweden
Method: as §1
0.1 ml tris(hydroxymethyl)-amino-methane hydrochloride-hydrochloric acid buffer (pH=7.2), containing the peptide,
0.1 ml 0.1 U plasmin dissolved in buffer solution (KABI, Stockholm, Sweden), and
0.1 ml US Standard Human Thrombin (NIH, Bethesda, Md., USA) 10 U/ml solution.
The lysis time of the fibrin gel formed in the peptide-free system is 10 minutes. D-Phenylalanyl-L-prolyl-L-arginine-aldehyde sulfate and the above-mentioned t-butyloxycarbonyl-D-phenylalanyl-L-prolyl-L-arginine-aldehyde hemisulfate were used as reference substances.

[6] = target: T1, US Standard Human Thrombin; conditions: literature statement; cited from earlier work
[7] = target: T2, plasmin; conditions: literature statement; cited from earlier work
[8] = Conversion to the tricyclic compound in aqueous solution, monitored by chromatography; type: physicochemical
[9] = target: T1, US Standard Human Thrombin; conditions: cool solution (5° C.), prolonged period; Belgian patent specification No. 891,708; cited from earlier work

T2 sequence (P00747 581-810 limits assumed): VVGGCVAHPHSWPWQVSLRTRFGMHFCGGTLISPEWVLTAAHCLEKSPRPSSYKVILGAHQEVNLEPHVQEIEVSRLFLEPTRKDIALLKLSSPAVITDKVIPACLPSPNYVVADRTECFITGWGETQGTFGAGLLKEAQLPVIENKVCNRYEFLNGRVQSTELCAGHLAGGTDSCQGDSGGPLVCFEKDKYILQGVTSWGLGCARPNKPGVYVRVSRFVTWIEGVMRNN
T2 sequence (P00747 97-580 partner limits assumed): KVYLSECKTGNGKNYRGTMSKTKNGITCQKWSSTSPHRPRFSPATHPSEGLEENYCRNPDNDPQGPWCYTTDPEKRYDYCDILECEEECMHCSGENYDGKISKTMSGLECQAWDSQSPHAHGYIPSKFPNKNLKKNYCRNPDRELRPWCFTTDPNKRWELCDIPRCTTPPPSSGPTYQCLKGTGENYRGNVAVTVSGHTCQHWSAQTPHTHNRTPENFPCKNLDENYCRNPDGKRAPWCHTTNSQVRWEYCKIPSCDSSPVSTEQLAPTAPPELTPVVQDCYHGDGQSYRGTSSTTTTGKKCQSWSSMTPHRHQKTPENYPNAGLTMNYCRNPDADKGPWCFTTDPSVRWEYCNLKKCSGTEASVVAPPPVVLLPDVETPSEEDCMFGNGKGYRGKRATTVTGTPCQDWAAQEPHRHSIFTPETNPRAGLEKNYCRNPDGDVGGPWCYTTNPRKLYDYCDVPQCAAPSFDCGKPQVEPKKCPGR

Compound	loss of initial antithrombin activity during the observation period [2]	Activity (%) Day 1 [2] [%]	Activity (%) Day 2 [2] [%]	Activity (%) Day 3 [2] [%]	Initial activity I80 (zero day) [3] [µM]	irreversible conversion to the tricyclic compound ([4]; sulfate)	Lysis time of fibrin clot ([5]; peptide content 0.18 μM) [min]	Lysis time of fibrin clot ([5]; peptide content 0.36 μM)	Lysis time of fibrin clot ([5]; peptide content 0.72 μM)	Lowest effective dose po [1] [mg/kg]	Lowest effective dose iv [1] [mg/kg/h]	other results
t-butyloxycarbonyl-D-phenylalanyl-L-prolyl-L-arginine-aldehyde hemisulfate							10	20 min	40 min			inhibition of the thrombin-fibrinogen reaction [6]: inhibit; effect on the plasmin-fibrin reaction [7]: inhibit
CC(=O)O.N=C(N)NCCC[C@@H](C=O)NC(=O)[C@@H]1CCCN1C(=O)[C@H](N)Cc1ccccc1 [D-phenylalanyl-L-prolyl-L-arginine-aldehyde acetate, reference compound]												transformation into the corresponding tricyclic compound ([4]; conditions not stated): especially highly susceptible
CC[C@H](C)[C@@H](NC)C(=O)N1CCC[C@H]1C(=O)N[C@H](C=O)CCCNC(=N)N.O=S(=O)(O)O [N-Methyl-D-alloisoleucyl-L-prolyl-L-arginine-aldehyde sulfate] (H-[dNMeaIle]-Pro-Arg-aldehyde)										30	1.0	
CN(C)[C@H](Cc1ccccc1)C(=O)N1CCC[C@H]1C(=O)N[C@H](C=O)CCCNC(=N)N.O=S(=O)(O)O [N,N-Dimethyl-D-phenylalanyl-L-prolyl-L-arginine-aldehyde sulfate]										30		irreversible conversion to the tricyclic compound [4]: no such conversion was detectable
N=C(N)NCCC[C@@H](C=O)NC(=O)[C@@H]1CCCN1C(=O)[C@H](N)Cc1ccccc1.O=S(=O)(O)O [D-Phenylalanyl-L-prolyl-L-arginine-aldehyde sulfate, reference compound]	more than 50%	100	50	40	0.25		10	**	no clot formed	20	0.5	irreversible conversion to the tricyclic compound [4]: gradually reduced; time to practically complete transformation into the tricyclic compound at 37° to 40° C. ([8]; 37° to 40° C.): 10 to 14 days; transformation into the tricyclic compound at 80° to 100° C. ([8]; 80° to 100° C.): within hours; stability: retention of initial activity in cool solution [9]: retaining its initial activity
1,2,4,5,6,6a-hexahydro-1-benzyl-2-oxo-8-(4'-guanidino)-butyl-pyrrolo[1,2- a]imidazolo[2,1-c]pyrazine [tricyclic compound]												enzyme inhibitory activity ([3]; conversion product, method not described): devoid of enzyme inhibitory activity

Continued, in another order:

loss of initial antithrombin activity during the observation period [2]	Activity (%) Day 1 [2] [%]	Activity (%) Day 2 [2] [%]	Activity (%) Day 3 [2] [%]	Initial activity I80 (zero day) [3] [µM]	irreversible conversion to the tricyclic compound ([4]; sulfate)	Lysis time of fibrin clot ([5]; peptide content 0.18 μM) [min]	Lysis time of fibrin clot ([5]; peptide content 0.36 μM)	Lysis time of fibrin clot ([5]; peptide content 0.72 μM)	Compound	Lowest effective dose po [1] [mg/kg]	Lowest effective dose iv [1] [mg/kg/h]	other results
15 to 20%	100	85	80	0.31	fail to be irreversibly converted				CC(C)CN[C@H](Cc1ccccc1)C(=O)N1CCC[C@H]1C(=O)N[C@H](C=O)CCCNC(=N)N.O=S(=O)(O)O [N-Isobutyl-D-phenylalanyl-L-prolyl-L-arginine-aldehyde sulfate]	20		irreversible conversion to the tricyclic compound ([4]; listed as N-isobutyl derivative, sulfate): no such conversion was detectable
retained its initial potency					fail to be irreversibly converted	10	**	no clot formed	CN[C@H](Cc1ccccc1)C(=O)N1CCC[C@H]1C(=O)N[C@H](C=O)CCCNC(=N)N.O=S(=O)(O)O [N-Methyl-D-phenylalanyl-L-prolyl-L-arginine-aldehyde sulfate]	20	0.5	irreversible conversion to the tricyclic compound ([4]; listed as N-methyl derivative, sulfate): no such conversion was detectable
15 to 20%	100	100	85	0.21	fail to be irreversibly converted				CCN[C@H](Cc1ccccc1)C(=O)N1CCC[C@H]1C(=O)N[C@H](C=O)CCCNC(=N)N.O=S(=O)(O)O [N-Ethyl-D-phenylalanyl-L-prolyl-L-arginine-aldehyde sulfate]	20	0.5	irreversible conversion to the tricyclic compound ([4]; listed as N-ethyl derivative, sulfate): no such conversion was detectable
	100	100	100	0.25					CN[C@H](Cc1ccccc1)C(=O)N1CCC[C@H]1C(=O)N[C@@H](C=O)CCCNC(=N)N.O=S(=O)(O)O [N-Methyl-D-phenylalanyl-L-prolyl-D-arginine-aldehyde sulfate]			
